Here are results for two molecules from PMC12195250, “Synthesis, Biological Evaluation, Molecular Dynamics, and QM-MM Calculation of Spiro-Acridine Derivatives Against Leishmaniasis” (Microorganisms, 2025).

Test [1] relates to L. infantum promastigotes (Strain MHOM/BR/70/BH46). The test is described as follows: Anti-promastigote effect, Neubauer chamber counting. The test is classed as cell-based, Leishmania infantum. The settings on record: 72 h incubation, read-out: L. infantum IC50PRO. As to the method: The promastigote cultures of L. infantum (Strain MHOM/BR/70/BH46) and L. amazonensis (Strain MHOM/BR/PH8) were kept in Schneider medium (Sigma-Aldrich, St. Louis, MO, USA) supplemented with 20% fetal bovine serum (FBS) and 1% streptomycin/penicillin in a B.O.D. incubator (J. Prolab, model JP. 100 LBCM/CPAM) at 26 °C. The promastigote strains were used in the exponential growth phase in all stages for experimental purposes.
The Neubauer chamber method was used to assess the inhibitory concentrations of the synthesized spiro-acridines capable of eliminating 50% of the promastigotes in cultures of L. amazonensis and L. infantum (IC50) strains. Promastigotes from both species were collected, counted, and diluted in Schneider’s medium (Sigma-Aldrich, St. Louis, MO, USA) supplemented with 20% fetal bovine serum (FBS) at a final concentration of 1 × 10^6 cells/mL. The evaluated promastigotes were then exposed to different concentrations of the tested compounds (10, 5, 2.5, 1.25, and 0.625 μg/mL). The positive control used the commercial drug Amphotericin B®, while the negative control consisted of promastigotes incubated in Schneider’s medium alone. After 72 h of incubation at 25 °C, culture growth was observed by counting the viable cells using a Neubauer chamber and calculated using the following Equation (1): No. Leishmania/mL = No. of cells counted × No. of Neubauer chamber(1) quadrants × the dilution used × 10^4 (Neubauer chamber correction factor)
The concentration parameter that inhibits 50% of parasite growth (IC50) was used to estimate the growth inhibition of the promastigote species of Leishmania sp. Thus, IC50 was determined by linear regression analysis with SPSS 8.0 software for Windows. Each test was performed in two independent experiments, with different cultures and in technical triplicate.

Test [2] deals with L. amazonensis axenic amastigotes. Put plainly: Anti-amastigote effect on axenic amastigotes, MTT. The format is cell-based, Leishmania amazonensis. The settings on record: L. amazonensis axenic amastigotes, 24 h, MTT. As to the method:
The amastigote forms of L. amazonensis were maintained under cryopreservation until they were transferred to an NNN medium (Novy–MacNeal–Nicolle) and incubated at 26 °C until the parasites reached the log growth phase. Subsequently, the suspension was transferred to Schneider culture medium (Sigma-Aldrich, St. Louis, MO, USA), supplemented with 20% inactivated fetal bovine serum and 0.2% gentamicin sulfate at 26 °C, causing the parasites to return to the log growth phase. The cultures were then maintained at 37 °C, producing a growth curve and the formation of the axenic amastigote strains.
The concentrations of the compounds AMTAC-02 and ACMD-03 capable of eliminating 50% of the cells in the cultures of L. amazonensis amastigotes (IC50) were determined using the MTT [3-(4,5-dimethylthiazol-2-yl)-2,5-diphenyltetrazolium bromide] (Sigma-Aldrich) reagent. In a 96-well plate, the assay was initiated by diluting both compounds to concentrations of 2, 4, 8, 16, and 32 μg/mL and 2.0 × 10^5 axenic amastigotes per well. The plates were incubated at 37 °C for 24 h. Then, 10 μL of MTT was added per well, and the cultures were re-incubated for 4 h. Subsequently, 50 μL of dimethyl sulfoxide was added to each well to solubilize the formazan crystals formed. The absorbances were measured using a SpectraMAX GeminiXS plate spectrophotometer (Molecular Devices LLC) at a wavelength of 570 nm. The negative control consisted of untreated cells, while the positive control was assessed by incubating the axenic amastigotes with the reference drug Amphotericin B® [13].

The subject of test [3] is J774 macrophages infected with L. amazonensis amastigotes. Put plainly: Cytokine profile by cytometry bead assay (CBA). The test is classed as cell-based. Conditions: 24 h; for IL-6 expression: 8 µg/mL, versus untreated infected macrophages; for modulation of the IL-2 response: basal or infected macrophages, 2, 4 and 8 µg/mL; for IL-4 expression / IL-10 expression / TNF-α expression: infected macrophages, 2, 4 and 8 µg/mL; for TNF-α expression: versus untreated infected. As for the experimental part: The assessment of the influence of spiro-acridine derivatives on the cytokine profile of immunological responses was carried out by the quantification of the cytokines IL-2, IL-4, IL-6, IL-10, IL-17A, INF-γ, and TNF-α in supernatants of cell cultures of J774 macrophages infected with L. amazonensis amastigotes through cytometry bead assay (CBA), according to the manufacturer’s instructions (BD Bioscience, Franklin Lakes, NJ, USA). The cells were adhered to a plate, infected with amastigotes of L. amazonensis, and treated with the spiro-acridines under analysis in the following concentrations: 2, 4, and 8 μg/mL. After the 24-h treatment period, 50 μL of the supernatant from each well was transferred to a conical tube, while 50 μL of the capture bead mixture and 50 μL of the detection reagent were added. The samples were incubated for 2 h at room temperature and protected from light. After incubation, 500 μL of washing buffer was added to each tube, followed by centrifugation for 5 min. The supernatant was discarded, and 300 μL of washing buffer was added. A calibration curve containing the following concentrations of each cytokine was added to the experiment: 0, 20, 40, 80, 156, 312.5, 625, 1250, 2500, and 5000 pg/mL. Uninfected and untreated macrophages were used as the negative control, while the untreated macrophages infected with L. amazonensis were used as the positive control. The fluorescence intensity in each sample was captured on the BD LRS II FORTESSA flow cytometer using the DIVA program version 7 (BD Bioscience), and the fluorescence data was processed using the FCAP array program version 3 (BD Bioscience). The experiments were performed in triplicate.

Test [4] deals with macrophages infected with L. amazonensis. Put plainly: Reactive oxygen and nitrogen species (DCF-DA, DAF-FM diacetate). The test is classed as cell-based. Conditions: 24 h; for expression of ROS: 2, 4 and 8 µg/mL, DCF-DA, compared to basal macrophage. An excerpt: The assay for the quantification of reactive oxygen species (ROS) and reactive nitrogen species (RNS) was executed using, respectively, the probe 2′,7′-dichlorodihydrofluorescein diacetate (DCF-DA) and 4-amino-5-methylamino-2′,7′-difluorofluorescein diacetate (DAF-FM diacetate), which produce 2–7-dichlorofluorescein (DCF) and 4-amino-5-methylamino-2′,7′-difluorofluorescein (DAF-FM) in the presence of the respective reactive species. Therefore, initially, macrophages were adhered to and infected with L. amazonensis in a plate, followed by the treatment with AMTAC-02 or ACMD-03 at concentrations of 2, 4, and 8 μg/mL. Subsequently, following a 24-h treatment period, the plates were incubated for 30 min with the DCF-DA probe diluted in saline (pH 7.2) and for 1 h with the DAF-FM diacetate probe diluted in saline (pH 7.2), respectively, in a humid chamber at 37 °C with 5% CO2, protected from light. The cells were washed twice with saline (pH 7.2) at room temperature and then resuspended in 200 µL of saline under the same conditions. The negative control comprised uninfected and untreated macrophages, while the positive control comprised untreated macrophages infected with L. amazonensis. Afterward, the fluorescence intensity in each sample was captured using the BD LRS II FORTESSA flow cytometer and the DIVA program version 7 (BD Bioscience). The mean fluorescence intensity (MFI) was then obtained by processing the data in FlowJoTM version 10.6.1. The experiment was performed in triplicate, and the results were calculated as the difference in MFI in each group.

Entries after “also recorded” stand apart in the source; their conditions may differ. Like-named read-outs stand apart in the source and are kept apart here.

Take `N#CC1=CC2(c3ccccc3Nc3ccccc32)N(c2ccc(Cl)cc2)C1=O` [ACMD-03, (E)1′-(4-chlorophenyl)-5′-oxo-1′, 5′-dihydro-10H-spiro{acridine-9,2′-pyrrole]-4′-carbonitrile]: the IC50 in test [1] amounted to 7.82 µM. In test [2], this molecule had an IC50 of 10.5 µM. For the same molecule, in test [3], the IL-6 expression result is “significant decrease in IL-6 expression”; the “modulation of the IL-2 response” value is “did not demonstrate a modulation of the IL-2 response”; the IL-4 expression result is recorded as “Neither of the two molecules significantly influenced IL-4 expression”; the IL-10 expression entry is “significantly increased the expression of IL-10 at concentrations of 4 and 8 µg/mL”. In test [3], the TNF-α expression entry is “significant reduction in TNF-α expression”. Also, the “IL-17A level (Th17 response)” value in test [3] (versus basal and parasite-infected macrophages) is “significant increase in this interleukin at a concentration of 4 µg/mL”. Moreover, the “expression of ROS” value in test [4] was “significantly increased ROS expression”. Also, in test [4] (DAF-FM diacetate, versus infected macrophage), the “expression of RNS” value is recorded as “intensified RNS expression; also recorded: significantly increased (* p < 0.05) RNS at a concentration of 2 µg/mL”.
`COc1ccc(/C=N/N2C(=O)C(C#N)=CC23c2ccccc2Nc2ccccc23)cc1` [AMTAC-02, (E)-1′-((4-methoxybenzylidene)amino)-5′-oxo-1′,5′-dihydro-10H-spiro[acridine-9,2′-pyrrole]-4′-carbonitrile]: the IC50 in test [1] (Leishmania infantum) turned out to be 2.22 µM. The molecule also displayed an IC50 in test [2] of 13.5 µM. In test [2] (Leishmania amazonensis), this molecule returned an IC50 of 10.5 to 13.5 µM. In test [3], the IL-6 expression result was “significant decrease in IL-6 expression”, the “modulation of the IL-2 response” value was “did not demonstrate a modulation of the IL-2 response”, the IL-4 expression entry is reported as “Neither of the two molecules significantly influenced IL-4 expression” and the IL-10 expression entry was “no significant increase in IL-10 expression”. In test [3], the TNF-α expression result is “significant reduction in TNF-α expression”. For the same molecule, in test [4], the “expression of ROS” value was “significantly increased ROS expression”.
